Measurements taken from PubChem BioAssay (NCI).
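Five compound concentrations were applied to cells in 96-well plates for 48 hours; endpoints were derived by simple linear interpolation of the resulting dose-response curve. Abbreviation: GI50, concentration required for 50% inhibition of growth. TGI denotes the concentration required for complete inhibition of growth.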

What was measured:
Assay in all cases: DTP human tumour cell line panel, 48 h
[1] = test system: 786-0 renal
[2] = test system: A498 renal
[3] = test system: A549 NSCLC
[4] = test system: ACHN renal
[5] = test system: BT-549 breast
[6] = test system: CAKI-1 renal
[7] = test system: CCRF-CEM leukemia
[8] = test system: COLO 205 colon
[9] = test system: DU-145 prostate
[10] = test system: EKVX NSCLC
[11] = test system: HCT-116 colon
[12] = test system: HCT-15 colon
[13] = test system: HL-60(TB) leukemia
[14] = test system: HOP-62 NSCLC
[15] = test system: HOP-92 NSCLC
[16] = test system: HS 578T breast
[17] = test system: HT29 colon
[18] = test system: K-562 leukemia
[19] = test system: KM12 colon
[20] = test system: LOX IMVI melanoma
[21] = test system: M14 melanoma
[22] = test system: MCF7 breast
[23] = test system: MDA-MB-231 breast
[24] = test system: MDA-MB-435
[25] = test system: MOLT-4 leukemia
[26] = test system: NCI-H226 lung
[27] = test system: NCI-H460 lung
[28] = test system: NCI-H522 lung
[29] = test system: NCI/ADR-RES ovarian
[30] = test system: OVCAR-4 ovarian
[31] = test system: OVCAR-5 ovarian
[32] = test system: OVCAR-8 ovarian
[33] = test system: PC-3 prostate
[34] = test system: RPMI-8226 leukemia
[35] = test system: RXF 393 renal
[36] = test system: SF-268 CNS
[37] = test system: SF-295 CNS
[38] = test system: SF-539 CNS
[39] = test system: SK-MEL-2 melanoma
[40] = test system: SK-MEL-28 melanoma
[41] = test system: SK-MEL-5 melanoma
[42] = test system: SK-OV-3 ovarian
[43] = test system: SN12C renal
[44] = test system: SNB-19 CNS
[45] = test system: SR leukemia
[46] = test system: TK-10 renal
[47] = test system: U251 CNS
[48] = test system: UACC-257 melanoma
[49] = test system: UACC-62 melanoma
[50] = test system: UO-31 renal
[51] = test system: HCC-2998 colon
[52] = test system: IGROV1 ovarian
[53] = test system: MALME-3M melanoma
[54] = test system: NCI-H23 lung
[55] = test system: OVCAR-3 ovarian
[56] = test system: SNB-75 CNS
[57] = test system: SW-620 colon

COc1cc2c(cc1OCCCN1CCN(C)CC1)N=C[C@@H]1CCCN1C2=O
TGI [1]: 18.3 µM | TGI [2]: 5.75 µM | TGI [3]: 5.94 µM | TGI [4]: 6.12 µM | TGI [5]: 6.59 µM | TGI [6]: 3.12 µM | TGI [7]: 10.6 µM | TGI [8]: 2.25 µM | TGI [9]: 5.98 µM | TGI [10]: 6.02 µM | TGI [11]: 9.47 µM | TGI [12]: 7.02 µM | TGI [13]: 5.37 µM | TGI [14]: 9.64 µM | TGI [15]: 4.65 µM | TGI [16]: > 100 µM | TGI [17]: 4.99 µM | TGI [18]: 14.2 µM | TGI [19]: 4.95 µM | TGI [20]: 4.38 µM | TGI [21]: 4.99 µM | TGI [22]: > 100 µM | TGI [23]: 22.3 µM | TGI [24]: 3.77 µM | TGI [25]: 2.53 µM | TGI [26]: 4.62 µM | TGI [27]: > 100 µM | TGI [28]: 0.518 µM | TGI [29]: 21.1 µM | TGI [30]: 4.78 µM | TGI [31]: 7.01 µM | TGI [32]: 8.79 µM | TGI [33]: 9.78 µM | TGI [34]: 3.68 µM | TGI [35]: 6.03 µM | TGI [36]: > 100 µM | TGI [37]: 5.37 µM | TGI [38]: 4.97 µM | TGI [39]: 7.41 µM | TGI [40]: 3.97 µM | TGI [41]: 9.29 µM | TGI [42]: 23.2 µM | TGI [43]: > 100 µM | TGI [44]: > 100 µM | TGI [45]: 0.839 µM | TGI [46]: > 100 µM | TGI [47]: 14.5 µM | TGI [48]: 5.68 µM | TGI [49]: 3.75 µM | TGI [50]: > 100 µM

C=C1C(O)C2C(=C(CCC3CC3)C13CC3)C(=O)C(C)(C)C2O (configuration not stated)
GI50 [1]: > 100 µM | TGI [1]: > 100 µM | GI50 [3]: > 100 µM | TGI [3]: > 100 µM | GI50 [4]: > 100 µM | TGI [4]: > 100 µM | GI50 [5]: > 100 µM | TGI [5]: > 100 µM | GI50 [6]: 45.8 µM | TGI [6]: > 100 µM | GI50 [7]: > 100 µM | TGI [7]: > 100 µM | GI50 [8]: > 100 µM | TGI [8]: > 100 µM | GI50 [9]: > 100 µM | TGI [9]: > 100 µM | GI50 [10]: > 100 µM | TGI [10]: > 100 µM | GI50 [51]: > 100 µM | TGI [51]: > 100 µM | GI50 [11]: > 100 µM | TGI [11]: > 100 µM | GI50 [12]: > 100 µM | TGI [12]: > 100 µM | GI50 [13]: > 100 µM | TGI [13]: > 100 µM | GI50 [14]: > 100 µM | TGI [14]: > 100 µM | GI50 [15]: 34.2 µM | TGI [15]: > 100 µM | GI50 [16]: 25.7 µM | TGI [16]: > 100 µM | GI50 [17]: > 100 µM | TGI [17]: > 100 µM | GI50 [52]: > 100 µM | TGI [52]: > 100 µM | GI50 [18]: 61.3 µM | TGI [18]: > 100 µM | GI50 [19]: > 100 µM | TGI [19]: > 100 µM | GI50 [20]: > 100 µM | TGI [20]: > 100 µM | GI50 [21]: > 100 µM | TGI [21]: > 100 µM | GI50 [53]: > 100 µM | TGI [53]: > 100 µM | GI50 [22]: 58.7 µM | TGI [22]: > 100 µM | GI50 [23]: 29.1 µM | TGI [23]: 99 µM | GI50 [24]: > 100 µM | TGI [24]: > 100 µM | GI50 [25]: 44.3 µM | TGI [25]: > 100 µM | GI50 [26]: > 100 µM | TGI [26]: > 100 µM | GI50 [54]: 76.2 µM | TGI [54]: > 100 µM | GI50 [27]: 80.9 µM | TGI [27]: > 100 µM | GI50 [28]: 60.4 µM | TGI [28]: > 100 µM | GI50 [29]: > 100 µM | TGI [29]: > 100 µM | GI50 [55]: 59.5 µM | TGI [55]: > 100 µM | GI50 [30]: > 100 µM | TGI [30]: > 100 µM | GI50 [31]: > 100 µM | TGI [31]: > 100 µM | GI50 [32]: > 100 µM | TGI [32]: > 100 µM | GI50 [33]: 92.3 µM | TGI [33]: > 100 µM | GI50 [34]: 43.7 µM | TGI [34]: > 100 µM | GI50 [35]: 32.9 µM | TGI [35]: > 100 µM | GI50 [36]: > 100 µM | TGI [36]: > 100 µM | GI50 [37]: 55.8 µM | TGI [37]: > 100 µM | GI50 [38]: > 100 µM | TGI [38]: > 100 µM | GI50 [39]: > 100 µM | TGI [39]: > 100 µM | GI50 [40]: 76.2 µM | TGI [40]: > 100 µM | GI50 [41]: 42.1 µM | TGI [41]: > 100 µM | GI50 [42]: 30.1 µM | TGI [42]: > 100 µM | GI50 [43]: 71.3 µM | TGI [43]: > 100 µM | GI50 [44]: > 100 µM | TGI [44]: > 100 µM | GI50 [56]: 23.2 µM | TGI [56]: > 100 µM | GI50 [45]: 32.1 µM | TGI [45]: > 100 µM | GI50 [57]: > 100 µM | TGI [57]: > 100 µM | GI50 [46]: > 100 µM | TGI [46]: > 100 µM | GI50 [47]: 89.9 µM | TGI [47]: > 100 µM | GI50 [48]: 71.3 µM | TGI [48]: > 100 µM | GI50 [49]: 87.4 µM | TGI [49]: > 100 µM | GI50 [50]: > 100 µM | TGI [50]: > 100 µM
